Results from patent publication US10428028B2, “HDAC inhibitors” (BIOMARIN PHARMACEUTICAL INC., priority 2013, dated 2019).

Assays:
HDAC1 = HDAC1 (Homo sapiens (Human), UniProt Q13547); assay: HDAC enzyme inhibition assay (Fluor-de-Lys), HDAC1; assay type: biochemical; conditions: 2 hours pre-incubation
Procedure: (§1) The HDAC activity inhibition assay was performed as follows to determine the ability of a test compound to inhibit HDAC enzymatic activity. Serial dilutions of HDAC inhibitors were prepared in HDAC assay buffer (25 mM Tris/HCl, pH 8.0, 137 mM NaCl, 2.7 mM KCl, 1 mM MgCl2, pH 8) in 96-well assay plates (Fisher scientific, #07-200-309) and were pre-incubated for 2 hours at room temperature in the presence of 125 μg/ml BSA and purified HDAC1 (BPS Bioscience, San Diego, Calif., #50051), HDAC2 (BPS Bioscience, #50053), or HDAC3/NcoR2 (BPS Bioscience, #50003) at concentrations of 1.25, 1.32, and 0.167 μg/mL, respectively. Following pre-incubation, Fluor-de-Lys™ substrate (Enzo Life Sciences, Plymouth Meeting, Pa., BML-KI104-0050) was added to a final concentration of 10 μM and plates were further incubated for 30 minutes at room temperature. The enzymatic reaction was stopped by addition of Trichostatin A (Sigma-Aldrich, St Louis, Mo., #T8552, final concentration: 100 nM) and trypsin (MP Biomedicals, Solon, Ohio, #02101179) was added to reach a final concentration of 100 μg/mL. After a 15 minute incubation at room temperature, fluorescence was recorded using a Spectramax M2 fluorometer (Molecular Devices, Sunnyvale, Calif.) with excitation at 365 nm and emission at 460 nm. IC50 values were calculated by using a sigmoidal dose-response (variable slope) equation in GraphPad Prism® 5 for Windows (GraphPad Software, La Jolla, Calif.). Results for selected compounds in the HDAC activity inhibition assay are presented in Table 5 (IC50 ranges: IA>20 μM, A<1 μM, 1<B<5 μM, 5<C<10 μM, 10<D<20 μM, ND: not determined).

HDAC3/NcoR2 = HDAC3/NcoR2 (Homo sapiens (Human), UniProt O15379); assay: HDAC enzyme inhibition assay (Fluor-de-Lys), HDAC3/NcoR2; assay type: biochemical; conditions: HDAC3/NcoR2, 2 hours pre-incubation
Procedure: as §1

[1] = Hepatocyte stability and metabolism (parent remaining, acid and OPD formation); assay type: in vitro ADME; conditions: human hepatocytes; for % left 6H Hum hep: 5 μM; for OPD: OPD formation by LC-MS/MS after phenylglyoxal derivatisation
Procedure: The inventors have found, however, that formula (I) compound metabolites are substantially free of OPD when formula (I) compounds are subjected to conditions intended to mimic in vivo metabolism pathways. As used herein, the term “substantially free of OPD” means that OPD was not detected by LC-MS/MS after (i) incubating a formula (I) compound with human, monkey, dog and rat hepatocytes and (ii) treating the metabolite milieu with an acidic solution of phenylglyoxal in an organic solvent (this addition leads to quantitative formation of 2-phenylquinoxaline, which can be easily quantified with a low lower limit of quantitation (LLOQ)). See the Examples section.
To assess the stability and metabolism of RGFP compounds and to quantify the metabolites in hepatocytes. This assay was designed to evaluate the metabolism of RGFP compounds, following their incubation with human, monkey, dog and rat hepatocytes by monitoring either parent drug disappearance or metabolite appearance using LC-MS/MS. The results are shown in Table 5 ((% Left in Hep: IA<10%, 50%<A, 50%>B>30%, 30%>C>10%, ND: not determined).
Procedure: Turn on the water-bath heater to 37° C. Take out the KHB buffer and make sure it is at room temp before use. Prepare 2.5 mM concentration of RGFP compound in DMSO stock. Add 10 μL of above DMSO stock to 2490 μL KHB buffer; final concentration of RGFP compound will be 10 μM. Pre-warm 45 ml InVitro HT Medium to 37° C. in a sterile 50 ml conical tube. Add 1.0 mL Torpedo Antibiotic Mix per 45 mL InVitro HT medium. Transfer 13 mL of warm HT medium with Antibiotic Mix into a 15 mL conical tube. Carefully remove the hepatocyte vials from liquid nitrogen (liquid phase). Immediately immerse the vial into a 37° C. water bath. Shake gently until the ice melts entirely. […] Immediately empty contents of the vial into 13 ml of pre-warmed InVitro HT Medium with antibiotics. Rinse the vial with the HT media just transferred the hepatocytes to, in order to ensure complete transfer. Centrifuge the cell suspension at 600 RPM for 5 minutes at room temperature. […] Add 1.0 ml of KHB (at room temperature) buffer to the tube of hepatocyte pellet. Loosen the cell pellet by gently swirling the centrifuge tube. Transfer 100 μL of above solution to a different tube and add 900 μL of KHB buffer to count the cells. Determine the total cell count and the number of viable cells using the Trypan Blue exclusion method. Once the cell count is obtained, multiply the number by 10 (attributing to the dilution factor). Add required volume of KHB buffer to the tube containing hepatocytes such that the final count will be 2 million cells/mL. Dispense 50 μL of 2 million cells/ml to a 96 well plate and then add 50 μl of DMSO stock to respective wells (such that, the concentration of RGFP compounds is 5 μM and number of cells are 100000 in each well). Place the plates on a shaker in a 37° C. incubator with 5% CO2. Separate plates for each time point are advisable (Time points: 0 h, 1 h, 2 h, and 6 h). After each time point, add 100 μL of quenching solution. Quenching solution is an acetonitrile solution containing RGFP531 (10 μM) internal standard, 0.1% formic acid and phenylglyoxol (400 μM). The formic acid and phenylglyoxal is used for the identification and quantification of OPD as mentioned above. Pipette up and down a few times to ensure a complete stop of reaction. Transfer all the solution into a 1.5 ml tube, vortex thoroughly, and centrifuge at 14000 RPM at 4° C. for 5 minutes to precipitate cell debris. Transfer the 150 μL of supernatant to vials for analysis on LC-MS/MS.
LC-MS/MS parameters for RGFP compounds and metabolites including OPD: LC-MS/MS Parameters for API 2000 QTrap: System: HPLC 1100; Column: Gemini C18, 5 μM 4.6×50 mm; Column Temp: Ambient; MS: API 2000 QTrap (MI mode); Mobile Phase A: HPLC water with 0.05% Formic Acid; Mobile Phase B: Acetonitrile with 0.05% Formic Acid.

Sequence of HDAC1 (Q13547 whole entry): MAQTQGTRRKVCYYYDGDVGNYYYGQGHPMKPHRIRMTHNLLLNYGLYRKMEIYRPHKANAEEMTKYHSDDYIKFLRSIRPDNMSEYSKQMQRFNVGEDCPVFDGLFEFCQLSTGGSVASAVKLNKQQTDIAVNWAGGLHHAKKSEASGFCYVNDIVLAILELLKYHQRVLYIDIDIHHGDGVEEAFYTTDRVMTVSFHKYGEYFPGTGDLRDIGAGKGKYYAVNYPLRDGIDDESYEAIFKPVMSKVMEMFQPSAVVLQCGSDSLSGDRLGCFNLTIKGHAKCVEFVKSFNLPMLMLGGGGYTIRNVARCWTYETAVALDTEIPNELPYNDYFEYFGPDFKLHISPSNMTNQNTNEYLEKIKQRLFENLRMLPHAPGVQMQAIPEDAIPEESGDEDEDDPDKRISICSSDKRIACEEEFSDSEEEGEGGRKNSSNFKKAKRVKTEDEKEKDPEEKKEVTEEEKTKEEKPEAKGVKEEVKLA
Sequence of HDAC3/NcoR2 (O15379 whole entry): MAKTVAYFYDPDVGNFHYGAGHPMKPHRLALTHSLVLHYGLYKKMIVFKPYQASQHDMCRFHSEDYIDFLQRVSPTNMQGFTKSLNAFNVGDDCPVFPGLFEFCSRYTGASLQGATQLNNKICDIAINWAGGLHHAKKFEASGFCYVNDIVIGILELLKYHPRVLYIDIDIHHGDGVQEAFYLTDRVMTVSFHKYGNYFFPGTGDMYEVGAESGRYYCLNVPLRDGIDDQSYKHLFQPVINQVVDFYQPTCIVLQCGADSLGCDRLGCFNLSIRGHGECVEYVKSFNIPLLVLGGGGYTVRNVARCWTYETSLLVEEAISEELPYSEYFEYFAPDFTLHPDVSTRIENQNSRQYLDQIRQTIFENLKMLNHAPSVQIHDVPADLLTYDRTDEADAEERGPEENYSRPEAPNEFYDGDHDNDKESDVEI
Sequence of HDAC3/NcoR2 (Q9Y618 395-489 partner): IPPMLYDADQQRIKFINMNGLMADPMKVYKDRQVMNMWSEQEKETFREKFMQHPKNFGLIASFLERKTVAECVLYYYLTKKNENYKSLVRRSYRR

Compound	IC50 (HDAC1)	IC50 (HDAC3/NcoR2)	% left 6H Hum hep [1]	OPD [1]
Nc1ccccc1NC(=O)c1ccc2c(cnn2Cc2cccnc2)c1 [Compound A1]	< 1000 nM	< 1000 nM	A (50%<A)	No OPD
Nc1ccccc1NC(=O)c1ccc2c(cnn2Cc2ccccc2)c1 [Compound A2]	< 1000 nM	< 1000 nM	B (50%>B>30%)	No OPD
Cn1cc(Cn2ncc3cc(C(=O)Nc4ccccc4N)ccc32)cn1 [Compound A3]	< 1000 nM	< 1000 nM	A (50%<A)	No OPD
Nc1ccccc1NC(=O)c1ccc2c(cnn2Cc2cncc(F)c2)c1 [Compound A4, N-(2-aminophenyl)-1-((5-fluoropyridin-3-yl)methyl)-1H-indazole-5-carboxamide]	< 1000 nM	< 1000 nM	A (50%<A)	No OPD
Cc1ccc(Cn2ncc3cc(C(=O)Nc4ccccc4N)ccc32)c(C)n1 [Compound A5]	< 1000 nM	< 1000 nM	B (50%>B>30%)	No OPD
Nc1cc(F)ccc1NC(=O)c1ccc2c(cnn2Cc2cccnc2)c1 [Compound A6]	< 1000 nM	< 1000 nM	B (50%>B>30%)	No OPD
Nc1cc(F)ccc1NC(=O)c1ccc2c(cnn2Cc2cncc(F)c2)c1 [Compound A7]	< 1000 nM	< 1000 nM	B (50%>B>30%)	No OPD
Cc1ccc(Cn2ncc3cc(C(=O)Nc4ccc(F)cc4N)ccc32)c(C)n1 [Compound A8]	< 1000 nM	< 1000 nM	A (50%<A)	No OPD
Nc1ccccc1NC(=O)c1ccc2c(cnn2Cc2ccc(F)c(F)c2)c1 [Compound A9]	< 1000 nM	< 1000 nM	B (50%>B>30%)	No OPD
Nc1cc(F)ccc1NC(=O)c1ccc2c(cnn2CC2CC2)c1 [Compound A12]	1000 to 5000 nM	< 1000 nM	C (30%>C>10%)	No OPD
Nc1ccccc1NC(=O)c1ccc2nn(Cc3cccnc3)cc2c1 [Compound A13]	< 1000 nM	< 1000 nM	A (50%<A)	No OPD
Nc1ccccc1NC(=O)c1ccc2nn(Cc3cncc(F)c3)cc2c1 [Compound A14, N-(2-aminophenyl)-2-((5-fluoropyridin-3-yl)methyl)-2H-indazole-5-carboxamide]	< 1000 nM	< 1000 nM	A (50%<A)	No OPD
Cc1ccc(Cn2cc3cc(C(=O)Nc4ccccc4N)ccc3n2)c(C)n1 [Compound A15]	< 1000 nM	< 1000 nM	A (50%<A)	No OPD
